Data as given in US8846656B2, “Tetrahydropyrido-pyridine and tetrahydropyrido-pyrimidine compounds and use thereof as C5a receptor modulators” (Novartis AG, priority 2011, dated 2014).
Several values for one entry are separate records, joined by “and”; a condition that tells them apart may be missing. Equal entries are not always repeated. Where two headings read alike, the source gives them in different places.

Assays:
human C5aR = human C5aR (Homo sapiens (Human), UniProt P21730); experiment: FLIPR assay: inhibition of C5a-mediated calcium mobilization; assay type: cell-based; conditions: stable cell line over expressing human C5aR & Gα15, human C5a at EC50 (0.1-0.25 nM)
Chain of human C5aR (P21730 whole entry): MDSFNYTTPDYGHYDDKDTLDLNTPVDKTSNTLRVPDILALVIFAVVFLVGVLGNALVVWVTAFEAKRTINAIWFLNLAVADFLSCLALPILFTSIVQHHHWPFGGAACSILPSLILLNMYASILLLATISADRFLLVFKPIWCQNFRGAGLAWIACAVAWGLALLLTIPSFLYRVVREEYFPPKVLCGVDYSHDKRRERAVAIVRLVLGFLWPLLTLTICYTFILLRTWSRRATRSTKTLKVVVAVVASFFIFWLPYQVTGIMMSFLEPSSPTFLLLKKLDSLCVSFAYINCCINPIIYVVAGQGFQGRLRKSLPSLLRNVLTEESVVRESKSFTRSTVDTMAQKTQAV
Protocol: Compounds were tested for their ability to inhibit C5a-mediated calcium mobilization using a stable cell line over expressing the human C5aR & the Gα15 protein on the FLIPR (Fluorescent Imaging Plate Reader) Tetra system. Cells were maintained in culture media containing DMEM (Dulbecco's Modified Eagle Medium) with 4.5 g/L glucose, 10% fetal bovine serum, 100 U/mL, 1× non-essential amino acid, and 250 μg/mL G418 (Geneticin). Prior to testing of compounds, cells were plated at 10,000 cells/well in clear bottom 384-well black plate, and incubated overnight at 37° C. with 5% CO2. On the day of experiment, culture media was removed, and replaced with assay buffer HBSS (Hanks' Balanced Salt Solution) with 20 mM HEPES (4-(2-hydroxyethyl)-1-piperazineethanesulfonic acid) and 0.1% BSA (bovine serum albumin) BSA containing calcium 5 dye (Molecular Devices) and 2.5 mM probenecid. After 1 hour incubation at 37° C., 5% CO2 for 60 min, cells were pre-incubated with compounds for 30 minutes at room temperature, in 1% DMSO (dimethyl sulfoxide).

CD11b = experiment: Human whole blood CD11b up-regulation assay; assay type: cell-based; conditions: 2 nM human C5a, CD15+ granulocytes, read-out: hCD11b IC50
Protocol: Whole blood was collected in sodium heparin tubes and the assay started within 2 hours of the blood draw. The blood was incubated with compounds in 1% DMSO (dimethyl sulfoxide) at room temperature for 10 minutes with gentle rocking. 2 nM of human C5a was then added for 15 minutes at room temperature with gentle rocking. Following the C5a incubation period cells were washed once with cold FACS (fluorescence-activated cell sorting) buffer (phosphate buffered saline+0.5% bovine serum albumin) FITC (fluorescein isothiocyanate) mouse anti-human CD15 and PE-Cy5 (phycoerythrin-cyanine 5) mouse anti-human CD11b antibodies (Becton Dickinson) were gently mixed with the cells and allowed to incubate for 30 minutes on ice protected from the light. Cells were then washed three times with cold FACS buffer. Red blood cells (RBC) were lysed by incubating with BD FACS lysis buffer (Becton Dickinson) for 10 minutes at room temperature. Cells were pelleted and the lysing procedure was repeated until all RBCs were lysed. The remaining leukocytes were resuspended in BD lysis buffer. Samples were acquired on the LSR^11 flow cytometer and 10,000 events of the CD15+ granulocyte population were collected. The CD11b median fluorescence intensity of the CD 15+ cell population was evaluated using FACSDiva software (Becton Dickinson).

| SMILES | IC50 (human C5aR) | IC50 (CD11b; Homo sapiens) [nM] | IC50 (CD11b) [nM] |
| --- | --- | --- | --- |
| Cc1ccc(C(C)C)cc1N1CCc2nc(-c3cccc4[nH]cc(C)c34)nc(N3CC[C@H](O)[C@H](C)C3)c2C1 (racemic) [Example 17-AN, racemic-1-(6-(5-isopropyl-2-methylphenyl)-2-(3-methyl-1H-indol-4-yl)-5,6,7,8-tetrahydropyrido[4,3-d]pyrimidin-4-yl)-3-methylpiperidin-4-ol] | 31 nM | 423 | – |
| CO[C@H]1CCN(c2nc(-c3cccc4[nH]cc(C)c34)nc3c2CN(c2cc(C(C)C)ccc2C)CC3)C[C@H]1C (racemic) [Example 17-AQ, racemic 6-(5-isopropyl-2-methylphenyl)-4-(4-methoxy-3-methylpiperidin-1-yl)-2-(3-methyl-1H-indol-4-yl)-5,6,7,8-tetrahydropyrido[4,3-d]pyrimidine] | 16 nM | 277 | – |
| Cc1ccc(C(C)C)cc1N1CCc2nc(-c3cccc4[nH]cc(C)c34)nc(N3C[C@H](C)N(CC(N)=O)C[C@H]3C)c2C1 (racemic) [Example 28-D, Racemic-2-(4-(6-(5-Isopropyl-2-methylphenyl)-2-(3-methyl-1H-indol-4-yl)-5,6,7,8-tetrahydropyrido[4,3-d]pyrimidin-4-yl)-(trans)-2,5-dimethylpiperazin-1-yl)acetamide] | 4 nM | 58 | – |
| COC1CCN(c2nc(-c3c(C)cccc3C)nc3c2CN([C@@H](C)c2ccccc2)CC3)CC1(C)C (mixture of isomers) [Example 33-C, (±)-2-(2,6-Dimethylphenyl)-4-(4-methoxy-3,3-dimethylpiperidin-1-yl)-6-((S)-1-phenylethyl)-5,6,7,8-tetrahydropyrido[4,3-d]pyrimidine] | 79 nM | 238 | – |
| Cc1ccc(C(C)C)cc1N1CCc2nc(-c3c(C)ccc4[nH]ncc34)cc(C)c2C1 [Example 41-D, 6-(5-Isopropyl-2-methylphenyl)-4-methyl-2-(5-methyl-1H-indazol-4-yl)-5,6,7,8-tetrahydro-1,6-naphthyridine] | – | 153 | – |
| [2H]C1([2H])c2c(C)cc(-c3c(CC)cccc3CC)nc2CC(C)N1c1cc(C2CC2)nn1C (stereo not shown) [Example 42-H, 6-(3-cyclopropyl-1-methyl-1H-pyrazol-5-yl)-2-(2,6-diethylphenyl)-4,7-dimethyl-5,6,7,8-tetrahydro(5,5-^2H2)-1,6-naphthyridine] | 58 nM | – | – |
| [2H]C1([2H])c2c(C)cc(-c3c(C)ccc4[nH]ncc34)nc2CCN1c1cc(C(C)C)ccc1C [Example 43-A, 6-(5-Isopropyl-2-methylphenyl)-4-methyl-2-(5-methyl-1H-indazol-4-yl)-5,6,7,8-tetrahydro(5,5-^2H2)-1,6-naphthyridine] | – | 178 | – |
| [2H]C1([2H])c2c(C)cc(-c3c(C)cnc4[nH]ccc34)nc2CCN1c1cc(C(C)C)ccc1C [Example 43-D, 6-(5-isopropyl-2-methylphenyl)-4-methyl-2-(5-methyl-1H-pyrrolo[2,3-b]pyridin-4-yl)-5,6,7,8-tetrahydro(5,5-^2H2)-1,6-naphthyridine] | 802 nM | – | – |
| [2H]C1([2H])c2c(C)cc(-c3c(CC)cccc3CC)nc2CCN1c1c(C)ccnc1C [Example 44-D, 2-(2,6-Diethylphenyl)-6-(2,4-dimethylpyridin-3-yl)-4-methyl-5,6,7,8-tetrahydro(5,5-^2H2)-1,6-naphthyridine] | 131 nM | – | – |
| COc1ccc(C)c(N2CCc3nc(-c4c(C)ccc5[nH]ncc45)cc(C)c3C2)c1 [Example 46-C] | 25 nM | – | – |
| CCc1cccc(CC)c1-c1cc(C)c2c(n1)CCN(c1nnnn1C)C2 [Example 48, 2-(2,6-Diethylphenyl)-4-methyl-6-(1-methyl-1H-tetrazol-5-yl)-5,6,7,8-tetrahydro-1,6-naphthyridine] | 198 nM | – | – |
| COCCN(C)c1cc(-c2c(C)cccc2C)nc2c1C(=O)N(c1cc(C(C)C)ccc1C)CC2 [Example 50-E, 2-(2,6-dimethylphenyl)-6-(5-isopropyl-2-methylphenyl)-4-((2-methoxyethyl)(methyl)amino)-7,8-dihydro-1,6-naphthyridin-5(6H)-one] | 790 nM | – | – |
| COCCN(C)c1cc(-c2c(C)cccc2C)nc2c1CN(c1cc(C(C)C)ccc1C)CC2 [Example 51-D, 2-(2,6-dimethylphenyl)-6-(5-isopropyl-2-methylphenyl)-N-(2-methoxyethyl)-N-methyl-5,6,7,8-tetrahydro-1,6-naphthyridin-4-amine] | 197 nM | – | – |
| CC(=O)N1CCN(c2nc(-c3cccc4[nH]cc(C)c34)nc3c2CN(c2cc(C(C)C)ccc2C)CC3)CC12CC2 [Example 53, 1-(7-(6-(5-Isopropyl-2-methylphenyl)-2-(3-methyl-1H-indol-4-yl)-5,6,7,8-tetrahydropyrido[4,3-d]pyrimidin-4-yl)-4,7-diazaspiro[2.5]octan-4-yl)ethanone] | 18 nM | – | – |
| CO[C@@H]1CCN(c2nc(-c3c(C)ccc4[nH]nc(C)c34)nc3c2CN(c2c(Cl)c(C4CC4)nn2C)CC3)CC1(C)C [Example 55-G, (R)-6-(4-Chloro-3-cyclopropyl-1-methyl-1H-pyrazol-5-yl)-2-(3,5-dimethyl-1H-indazol-4-yl)-4-(4-methoxy-3,3-dimethylpiperidin-1-yl)-5,6,7,8-tetrahydropyrido[4,3-d]pyrimidine] | 4 nM and 2 nM | – | – |

Continued, values first:

| IC50 (human C5aR) | IC50 (CD11b; Homo sapiens) [nM] | IC50 (CD11b) [nM] | SMILES |
| --- | --- | --- | --- |
| 4 nM | 196 | – | Cc1ccc2[nH]nc(C)c2c1-c1nc2c(c(N3C[C@@H](O)[C@@H]3C)n1)CN(c1c(Cl)c(C3CC3)nn1C)CC2 (racemic) [Example 69-H, (trans)-1-(6-(4-chloro-3-cyclopropyl-1-methyl-1H-pyrazol-5-yl)-2-(3,5-dimethyl-1H-indazol-4-yl)-5,6,7,8-tetrahydropyrido[4,3-d]pyrimidin-4-yl)-2-methylazetidin-3-ol] |
| – | 54 | – | Cc1ccc2[nH]nc(C)c2c1-c1nc2c(c(N3CC[C@@H]4OC[C@]4(C)C3)n1)CN(c1c(Cl)c(C3CC3)nn1C)CC2 (racemic) [Example 69-L, (1S*,6S*)-3-(6-(4-chloro-3-cyclopropyl-1-methyl-1H-pyrazol-5-yl)-2-(3,5-dimethyl-1H-indazol-4-yl)-5,6,7,8-tetrahydropyrido[4,3-d]pyrimidin-4-yl)-1-methyl-7-oxa-3-azabicyclo[4.2.0]octane] |
| – | 41 | – | CCn1nc(C2CC2)c(Cl)c1N1CCc2nc(-c3c(C)ccc4[nH]nc(C)c34)nc(N3CCC3C)c2C1 (single isomer, unassigned) [Example 70-H, 6-(4-chloro-3-cyclopropyl-1-ethyl-1H-pyrazol-5-yl)-2-(3,5-dimethyl-1H-indazol-4-yl)-4-(2-methylazetidin-1-yl)-5,6,7,8-tetrahydropyrido[4,3-d]pyrimidine] |
| – | – | 38 | CCn1nc(C2CC2)c(Cl)c1N1CCc2nc(-c3c(C)ccc4[nH]nc(C)c34)nc(N3CCC3C)c2C1 (single isomer, unassigned) [Example 70-I, 6-(4-chloro-3-cyclopropyl-1-ethyl-1H-pyrazol-5-yl)-2-(3,5-dimethyl-1H-indazol-4-yl)-4-(2-methylazetidin-1-yl)-5,6,7,8-tetrahydropyrido[4,3-d]pyrimidine] |
| 1 nM | – | – | CO[C@@H]1CCN(c2nc(-c3c(C)ccc4[nH]nc(C)c34)nc3c2CN(c2c(Cl)c(C(F)F)nn2C)CC3)CC1(C)C [Example 55-I, (R)-6-(4-chloro-3-(difluoromethyl)-1-methyl-1H-pyrazol-5-yl)-2-(3,5-dimethyl-1H-indazol-4-yl)-4-(4-methoxy-3,3-dimethylpiperidin-1-yl)-5,6,7,8-tetrahydropyrido[4,3-d]pyrimidine] |
| 5 nM | – | – | CCO[C@@H]1CCN(c2nc(-c3c(C)ccc4[nH]nc(C)c34)nc3c2CN(c2c(Cl)c(C4CC4)nn2C)CC3)[C@H](C)C1 [Example 55-J, 6-(4-chloro-3-cyclopropyl-1-methyl-1H-pyrazol-5-yl)-2-(3,5-dimethyl-1H-indazol-4-yl)-4-((2R,4R)-4-ethoxy-2-methylpiperidin-1-yl)-5,6,7,8-tetrahydropyrido[4,3-d]pyrimidine] |
| 2 nM | – | – | CCO[C@@H]1CCN(c2nc(-c3c(C)ccc4[nH]nc(C)c34)nc3c2CN(c2c(F)c(C4CC4)nn2C)CC3)CC1(C)C [Example 56-E, (R)-6-(3-cyclopropyl-4-fluoro-1-methyl-1H-pyrazol-5-yl)-2-(3,5-dimethyl-1H-indazol-4-yl)-4-(4-ethoxy-3,3-dimethylpiperidin-1-yl)-5,6,7,8-tetrahydropyrido[4,3-d]pyrimidine] |
| – | 46 | – | Cc1ccc2[nH]nc(C)c2c1-c1nc2c(c(N3CCOC[C@H]3C)n1)CN(c1c(F)c(C3CC3)nn1C)CC2 [Example 76-C, (R)-4-(6-(3-Cyclopropyl-4-fluoro-1-methyl-1H-pyrazol-5-yl)-2-(3,5-dimethyl-1H-indazol-4-yl)-5,6,7,8-tetrahydropyrido[4,3-d]pyrimidin-4-yl)-3-methylmorpholine] |
